US20080009418A1, “Selective Inhibitors” (Alchemia LTD., priority 2004, published 2008)

Key:
Human δ-opioid (DOP) = target: T1, Human δ-opioid (DOP) (Homo sapiens, UniProt P41143); assay: Radioligand binding, human δ-opioid (DOP) membranes, FlashPlate, [3H]-Bremazocine; settings: compound at 10 μM; [3H]-Bremazocine
T1 construct: purchased Perkin Elmer Biosignal
In short: (§1)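 Cloned human receptor membranes were coated onto FlashPlate wells and incubated with radioligand and compound (added from a 0.5 mM DMSO daughter plate) for 1 hour at room temperature in the dark. Scintillation counting gave percent inhibition, with DMSO defining total and reference ligand defining non-specific binding.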

Human κ-Opioid (KOP) = target: T2, Human κ-Opioid (KOP) (Homo sapiens, UniProt P41145); assay: Radioligand binding, human κ-opioid (KOP) membranes, filtration, [3H]-Diprenorphine; settings: compound at 10 μM; [3H]-Diprenorphine
T2 construct: purchased Perkin Elmer Biosignal
In short: (§2)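 Filtration binding on cloned human receptor membranes (1 Unit/well), [125I]-Substance P for NK1 and [3H]-Diprenorphine for KOP, 1 h at room temperature. Filters PEI-presoaked, washed with cold 50 mM Tris-HCl pH 7.4, counted by scintillation; percent inhibition calculated, reference ligand defining non-specific binding.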

Human Melanocortin (MC3) = target: T3, Human Melanocortin (MC3) (Homo sapiens, UniProt P41968); assay: Radioligand binding, human melanocortin MC3 membranes, FlashPlate, [125I]-NDP-αMSH; settings: compound at 10 μM; [125I]-NDP-αMSH
T3 construct: purchased Perkin Elmer Biosignal
In short: as §1

Human Melanocortin (MC4) = target: T4, Human Melanocortin (MC4) (Homo sapiens, UniProt P32245); assay: Radioligand binding, human melanocortin MC4 membranes, FlashPlate, [125I]-NDP-αMSH; settings: compound at 10 μM; [125I]-NDP-αMSH
T4 construct: purchased Perkin Elmer Biosignal
In short: as §1

Human melanocortin (MC5) = target: T5, Human melanocortin (MC5) (Homo sapiens, UniProt P33032); assay: Radioligand binding, human melanocortin MC5 membranes, FlashPlate, [125I]-NDP-αMSH; settings: compound at 10 μM; [125I]-NDP-αMSH
T5 construct: purchased Perkin Elmer Biosignal
In short: as §1

[1] = target: T6, Human melanin-concentrating hormone (MCH1) (Homo sapiens, UniProt Q99705); assay: Radioligand binding, human melanin-concentrating hormone MCH1 membranes, FlashPlate, [125I]-S36057; settings: compound at 10 μM; [125I]-S36057
T6 construct: purchased Perkin Elmer Biosignal
In short: as §1

Human μ-opioid (MOP) = target: T7, Human μ-opioid (MOP) (Homo sapiens, UniProt P35372); assay: Radioligand binding, human μ-opioid (MOP) membranes, FlashPlate, [3H]-Naloxone; settings: compound at 10 μM; [3H]-Naloxone
T7 construct: purchased Perkin Elmer Biosignal
In short: as §1

Human neurokinin (NK1) = target: T8, Human neurokinin (NK1) (Homo sapiens, UniProt P25103); assay: Radioligand binding, human neurokinin NK1 membranes, filtration, [125I]-Substance P; settings: compound at 10 μM; [125I]-Substance P
T8 construct: purchased Perkin Elmer Biosignal
In short: as §2

[2] = target: T9, Human neuropeptide Y (NPY-Y1) (Homo sapiens, UniProt P25929); assay: Radioligand binding, human neuropeptide Y NPY-Y1 membranes, FlashPlate, [125I]-PYY; settings: compound at 10 μM; [125I]-PYY
T9 construct: purchased Perkin Elmer Biosignal
T9 sequence (P25929 1-384): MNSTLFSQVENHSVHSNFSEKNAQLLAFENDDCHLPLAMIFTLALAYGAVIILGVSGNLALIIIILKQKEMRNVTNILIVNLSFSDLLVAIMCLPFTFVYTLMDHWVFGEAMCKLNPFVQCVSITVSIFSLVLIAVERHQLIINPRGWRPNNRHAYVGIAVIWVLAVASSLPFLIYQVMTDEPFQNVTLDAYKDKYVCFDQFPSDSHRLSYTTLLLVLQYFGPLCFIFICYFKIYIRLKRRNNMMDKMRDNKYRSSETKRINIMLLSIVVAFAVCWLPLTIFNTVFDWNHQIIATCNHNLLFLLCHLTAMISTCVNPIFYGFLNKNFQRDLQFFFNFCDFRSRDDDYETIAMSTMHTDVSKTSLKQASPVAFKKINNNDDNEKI
In short: as §1

Human opioid (ORL1) = target: T10, Human opioid (ORL1) (Homo sapiens, UniProt P41146); assay: Radioligand binding, human opioid ORL1 membranes, FlashPlate, [125I]-Nociceptin; settings: compound at 10 μM; [125I]-Nociceptin
T10 construct: purchased Perkin Elmer Biosignal
In short: as §1

Mouse urotensin (mUR2) = target: T11, Mouse urotensin (mUR2) (Mus musculus, UniProt Q8VIH9); assay: Radioligand binding, mouse urotensin mUR2 membranes, FlashPlate, [125I]-Urotensin II; settings: compound at 10 μM; [125I]-Urotensin II
T11 construct: purchased Perkin Elmer Biosignal
T11 sequence (Q8VIH9 1-385): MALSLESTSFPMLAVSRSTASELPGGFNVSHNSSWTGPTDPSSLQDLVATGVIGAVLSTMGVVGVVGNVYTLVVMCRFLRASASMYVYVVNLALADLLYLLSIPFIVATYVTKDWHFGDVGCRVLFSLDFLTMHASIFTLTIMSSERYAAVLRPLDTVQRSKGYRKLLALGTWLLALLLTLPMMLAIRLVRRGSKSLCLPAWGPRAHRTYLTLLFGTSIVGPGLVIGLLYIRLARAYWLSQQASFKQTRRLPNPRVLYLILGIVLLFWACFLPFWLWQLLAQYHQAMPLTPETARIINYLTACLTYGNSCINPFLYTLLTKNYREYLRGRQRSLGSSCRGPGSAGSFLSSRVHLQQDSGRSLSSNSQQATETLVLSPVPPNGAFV
In short: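 Cloned mouse urotensin (mUR2) receptor membranes from Perkin Elmer Biosignal were immobilized in FlashPlate microplates using a proprietary coating. Each well got 19.5 μl buffer, then 0.5 μl of DMSO, reference ligand, or compound. Adding 5 μl of [125I]-Urotensin II, diluted to 5× final concentration in binding buffer, started binding. Plates were sealed with TopSeal-A and incubated 1 hour at room temperature in the dark. Wells were counted for 30 seconds each on a TopCount after a 60-second delay, and percentage inhibition was calculated.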

T2 sequence (P41145 whole entry): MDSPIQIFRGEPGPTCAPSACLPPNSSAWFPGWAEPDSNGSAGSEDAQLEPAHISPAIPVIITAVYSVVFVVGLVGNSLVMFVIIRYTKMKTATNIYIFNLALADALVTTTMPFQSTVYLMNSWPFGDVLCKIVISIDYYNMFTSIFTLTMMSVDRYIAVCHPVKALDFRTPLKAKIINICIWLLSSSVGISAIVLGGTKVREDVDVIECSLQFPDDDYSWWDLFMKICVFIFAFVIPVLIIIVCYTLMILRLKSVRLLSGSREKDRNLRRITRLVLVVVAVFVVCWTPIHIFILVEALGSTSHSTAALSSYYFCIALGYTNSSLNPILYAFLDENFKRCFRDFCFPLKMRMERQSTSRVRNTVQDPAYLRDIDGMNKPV
T8 sequence (P25103 whole entry): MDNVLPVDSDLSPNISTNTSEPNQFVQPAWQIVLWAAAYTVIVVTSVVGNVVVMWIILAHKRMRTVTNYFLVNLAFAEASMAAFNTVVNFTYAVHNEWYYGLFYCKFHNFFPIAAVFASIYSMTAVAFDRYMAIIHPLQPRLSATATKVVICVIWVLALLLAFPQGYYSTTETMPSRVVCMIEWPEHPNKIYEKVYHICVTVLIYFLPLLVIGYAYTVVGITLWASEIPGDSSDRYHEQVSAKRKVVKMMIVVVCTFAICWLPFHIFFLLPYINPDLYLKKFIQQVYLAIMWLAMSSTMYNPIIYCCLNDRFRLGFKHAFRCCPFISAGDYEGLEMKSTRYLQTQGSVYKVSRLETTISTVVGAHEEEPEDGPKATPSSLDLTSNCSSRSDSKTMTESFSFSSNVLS
T3 sequence (P41968 whole entry): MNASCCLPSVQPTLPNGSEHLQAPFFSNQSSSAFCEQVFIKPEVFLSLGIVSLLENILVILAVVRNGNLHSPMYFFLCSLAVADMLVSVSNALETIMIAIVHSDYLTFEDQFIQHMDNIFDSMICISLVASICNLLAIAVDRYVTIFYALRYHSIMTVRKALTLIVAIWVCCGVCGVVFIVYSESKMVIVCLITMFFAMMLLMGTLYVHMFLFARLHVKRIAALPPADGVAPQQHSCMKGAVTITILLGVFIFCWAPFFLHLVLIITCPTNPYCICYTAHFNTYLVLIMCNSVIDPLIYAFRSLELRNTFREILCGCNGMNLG
T6 sequence (Q99705 whole entry): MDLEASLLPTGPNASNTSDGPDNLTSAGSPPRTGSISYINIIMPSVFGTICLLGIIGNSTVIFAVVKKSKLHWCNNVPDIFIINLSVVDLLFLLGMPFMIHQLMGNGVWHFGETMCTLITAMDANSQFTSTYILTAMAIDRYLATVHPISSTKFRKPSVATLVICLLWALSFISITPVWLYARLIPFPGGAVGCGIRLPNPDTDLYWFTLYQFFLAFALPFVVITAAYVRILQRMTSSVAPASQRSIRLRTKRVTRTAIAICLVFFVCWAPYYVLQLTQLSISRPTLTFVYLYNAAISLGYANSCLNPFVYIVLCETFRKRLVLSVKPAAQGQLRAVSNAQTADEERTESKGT
T5 sequence (P33032 whole entry): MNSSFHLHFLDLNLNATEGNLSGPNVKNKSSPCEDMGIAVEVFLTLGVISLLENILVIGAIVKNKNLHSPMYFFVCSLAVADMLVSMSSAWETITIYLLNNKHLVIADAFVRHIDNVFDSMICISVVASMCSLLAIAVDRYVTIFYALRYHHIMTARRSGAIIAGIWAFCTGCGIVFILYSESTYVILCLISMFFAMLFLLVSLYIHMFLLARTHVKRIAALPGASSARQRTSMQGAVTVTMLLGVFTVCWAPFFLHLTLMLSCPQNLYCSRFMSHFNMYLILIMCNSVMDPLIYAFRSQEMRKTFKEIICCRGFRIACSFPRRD
T1 sequence (P41143 whole entry): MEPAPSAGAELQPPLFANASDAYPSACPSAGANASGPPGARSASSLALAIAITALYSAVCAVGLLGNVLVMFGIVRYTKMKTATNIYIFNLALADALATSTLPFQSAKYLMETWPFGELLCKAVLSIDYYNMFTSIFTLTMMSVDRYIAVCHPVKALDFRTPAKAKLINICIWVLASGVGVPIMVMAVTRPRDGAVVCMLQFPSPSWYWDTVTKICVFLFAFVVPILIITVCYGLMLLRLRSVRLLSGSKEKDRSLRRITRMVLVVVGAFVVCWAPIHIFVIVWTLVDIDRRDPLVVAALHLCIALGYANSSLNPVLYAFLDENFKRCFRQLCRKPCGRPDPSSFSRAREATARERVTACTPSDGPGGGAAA
T10 sequence (P41146 whole entry): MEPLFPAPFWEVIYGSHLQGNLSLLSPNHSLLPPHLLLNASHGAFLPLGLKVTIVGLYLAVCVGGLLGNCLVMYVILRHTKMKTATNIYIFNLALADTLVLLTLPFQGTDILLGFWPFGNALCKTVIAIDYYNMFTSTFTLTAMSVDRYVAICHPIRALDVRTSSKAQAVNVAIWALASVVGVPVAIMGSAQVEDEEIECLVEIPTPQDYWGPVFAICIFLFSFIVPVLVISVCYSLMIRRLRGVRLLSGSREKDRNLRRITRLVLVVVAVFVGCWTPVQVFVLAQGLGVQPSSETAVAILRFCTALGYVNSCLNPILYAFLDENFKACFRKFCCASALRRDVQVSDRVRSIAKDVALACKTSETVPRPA
T7 sequence (P35372 whole entry): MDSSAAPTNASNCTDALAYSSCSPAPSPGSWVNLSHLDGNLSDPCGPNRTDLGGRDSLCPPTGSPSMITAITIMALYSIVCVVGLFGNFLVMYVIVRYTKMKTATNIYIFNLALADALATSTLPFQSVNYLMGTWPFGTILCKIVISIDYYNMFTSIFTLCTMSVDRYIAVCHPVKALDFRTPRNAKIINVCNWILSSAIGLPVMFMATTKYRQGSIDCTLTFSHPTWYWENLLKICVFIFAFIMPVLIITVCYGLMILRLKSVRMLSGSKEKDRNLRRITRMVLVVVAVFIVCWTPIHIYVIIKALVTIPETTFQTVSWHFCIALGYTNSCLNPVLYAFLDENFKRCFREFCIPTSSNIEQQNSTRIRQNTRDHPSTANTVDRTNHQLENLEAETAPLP
T4 sequence (P32245 whole entry): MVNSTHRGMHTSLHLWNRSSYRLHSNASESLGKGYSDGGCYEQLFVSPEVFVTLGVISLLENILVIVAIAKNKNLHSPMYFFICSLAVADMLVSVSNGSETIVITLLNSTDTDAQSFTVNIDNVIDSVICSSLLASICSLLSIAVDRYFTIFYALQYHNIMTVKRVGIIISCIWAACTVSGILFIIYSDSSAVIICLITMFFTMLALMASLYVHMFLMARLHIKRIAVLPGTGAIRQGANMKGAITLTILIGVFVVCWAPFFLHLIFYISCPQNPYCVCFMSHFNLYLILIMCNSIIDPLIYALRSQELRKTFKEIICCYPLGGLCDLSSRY

Row | Structure (SMILES) | A1: inhibition of radioligand binding, human δ-opioid (DOP) (Human δ-opioid (DOP)) | A2: inhibition of radioligand binding, human κ-opioid (KOP) (Human κ-Opioid (KOP)) | A3: inhibition of radioligand binding, human melanocortin (MC3) (Human Melanocortin (MC3)) | A4: inhibition of radioligand binding, human melanocortin (MC4) (Human Melanocortin (MC4)) | A5: inhibition of radioligand binding, human melanocortin (MC5) (Human melanocortin (MC5)) | A6: inhibition of radioligand binding, human melanin-concentrating hormone (MCH1) [1] | A7: inhibition of radioligand binding, human μ-opioid (MOP) (Human μ-opioid (MOP)) | A8: inhibition of radioligand binding, human neurokinin (NK1) (Human neurokinin (NK1)) | A9: inhibition of radioligand binding, human neuropeptide Y (NPY-Y1) [2] | A10: inhibition of radioligand binding, human opioid (ORL1) (Human opioid (ORL1)) | A11: inhibition of radioligand binding, mouse urotensin (mUR2) (Mouse urotensin (mUR2))
1 | NCCC(=O)NC1C(OCc2ccc(Cl)cc2)OC(COCc2ccccc2)C(O)C1OCc1ccccc1 (single isomer, unassigned) [compound 485] | − (“−” indicates less than 50% inhibition at 10 μM) | − (“−” indicates less than 50% inhibition at 10 μM) | − (“−” indicates less than 50% inhibition at 10 μM) | − (“−” indicates less than 50% inhibition at 10 μM) | − (“−” indicates less than 50% inhibition at 10 μM) | − (“−” indicates less than 50% inhibition at 10 μM) | − (“−” indicates less than 50% inhibition at 10 μM) | + (“+” indicates greater than 50% inhibition at 10 μM) | − (“−” indicates less than 50% inhibition at 10 μM) | − (“−” indicates less than 50% inhibition at 10 μM) | − (“−” indicates less than 50% inhibition at 10 μM)
2 | CSC1O[C@H](COCc2ccc(-c3ccccc3)cc2)[C@@H](O)[C@@H](OCc2ccc(-c3ccccc3)cc2)[C@H]1NC(=O)CCNC(=N)N (stereo partly drawn) [compound 293] | − (“−” indicates less than 50% inhibition at 10 μM) | − (“−” indicates less than 50% inhibition at 10 μM) | − (“−” indicates less than 50% inhibition at 10 μM) | − (“−” indicates less than 50% inhibition at 10 μM) | − (“−” indicates less than 50% inhibition at 10 μM) | − (“−” indicates less than 50% inhibition at 10 μM) | − (“−” indicates less than 50% inhibition at 10 μM) | + (“+” indicates greater than 50% inhibition at 10 μM) | − (“−” indicates less than 50% inhibition at 10 μM) | − (“−” indicates less than 50% inhibition at 10 μM) | − (“−” indicates less than 50% inhibition at 10 μM)
3 | CSC1O[C@H](COCc2ccc3ccccc3c2)[C@@H](O)[C@@H](OCc2ccc(-c3ccccc3)cc2)[C@H]1NC(=O)CN (stereo partly drawn) [compound 295] | − (“−” indicates less than 50% inhibition at 10 μM) | − (“−” indicates less than 50% inhibition at 10 μM) | − (“−” indicates less than 50% inhibition at 10 μM) | − (“−” indicates less than 50% inhibition at 10 μM) | − (“−” indicates less than 50% inhibition at 10 μM) | − (“−” indicates less than 50% inhibition at 10 μM) | − (“−” indicates less than 50% inhibition at 10 μM) | + (“+” indicates greater than 50% inhibition at 10 μM) | − (“−” indicates less than 50% inhibition at 10 μM) | − (“−” indicates less than 50% inhibition at 10 μM) | − (“−” indicates less than 50% inhibition at 10 μM)
